According to patent publication US20250281457A1, “TREATMENT OR PREVENTION OF DENGUE VIRAL INFECTION” (Janssen Pharmaceuticals, Inc., priority 2022, published 2025):
Where two headings read alike, the source gives them in different places.

Assay: Plasma pharmacokinetics with loading dose and weekly or twice weekly maintenance dosing, fed (Example 5)
Assay type: in vivo, human
Conditions: human, plasma, oral; for Cmax: read-out: Mean Cmax (SD); for AUC: read-out: Mean AUCτ (SD); for AUC(0-inf): read-out: Mean AUC∞ (SD); for concentration at 72 h: read-out: Mean C72 h (SD)
Protocol: A pharmaceutical formulation comprising Compound (a) as described in Example 2 (SF2a/b) was administered as an oral dosage form, to healthy adult participants, in a fed state. Four dose regimens were applied: • Panel I (weekly dosing): 450 mg of Compound (a) twice a day (BID) for two days: on day 1 (D1) and on day 2 (D2) (loading dose); and then 900 mg once a week (Q7D), on day 3 (D3), day 10 (D10), day 17 (D17), and on day 24 (D24) (maintenance dose). • Panel II (biweekly dosing): 450 mg of Compound (a) twice a day (BID) for two days: on day 1 (D1) and on day 2 (D2); (loading dose) and then 450 mg once every 3 (Q3D) or 4 days (Q4D): on day 3 (D3), on day 6 (D6), on day 10 (D10), on day 13 (D13), on day 17 (D17), on day 20 (D20), on day 24 (D24), and on day 27 (D27), for a total of 900 mg each week administered through two doses of 450 mg each (maintenance dose). • Panel III (weekly dosing): 150 mg of Compound (a) twice a day (BID) for two days: on day 1 (D1) and on day 2 (D2) (loading dose); and then 300 mg once a week (Q7D): on day 3 (D3), day 10 (D10), day 17 (D17), and on day 24 (D24) (maintenance dose). • Panel IV (biweekly dosing): 150 mg of Compound (a) twice a day (BID) for two days: on day 1 (D1) and on day 2 (D2) (loading dose); and then 150 mg Q3D or Q4D: on day 3 (D3), on day 6 (D6), on day 10 (D10), on day 13 (D13), on day 17 (D17), on day 20 (D20), on day 24 (D24), and on day 27 (D27), for a total of 300 mg each week administered through two doses of 150 mg each (maintenance dose).
Oral dosage forms were administered together with approximately 240 mL of non-carbonated water under fed conditions, and were taken within 10 minutes after completion of normal standardized normal fat breakfast in the morning or after completion of normal standardized normal fat dinner in case of evening dosing. Intake of Compound (a) took place at around the same time each day. Intake of Compound (a) marked time 0 hours.
A standardized normal fat meal was served approximately 30 minutes before study drug intake. The standardized normal fat meal contained approximately 21 g of fat, 67 g of carbohydrates, 19 g of proteins resulting in around 533 kcal (an example meal is 4 slices of bread, 2 slices of ham or cheese, butter, jelly, and 1 or 2 cups (up to 355 mL) of decaffeinated coffee or tea with milk and/or sugar). The standardized normal fat meal was ingested entirely within 30 minutes or less. Within 10 minutes after completing the meal, but no more than 30 minutes after the start of the meal, study drug was administered. In case of Compound (a) intake in the evening, timing of standardized dinner was aligned to time of drug intake. […]
For Study Panel 1 only, additional whole blood samples were be collected on Days 1, 24, 25, 26, 38, 45, 51, and 59 using venipuncture. The whole blood samples were be used for the determination of Compound (a) whole blood concentrations and for determination of Compound (a) plasma concentrations. To determine Compound (a) venous whole blood concentrations, an aliquot of the whole blood sample was be pipetted onto the TASSO M-20 for better comparison with capillary whole blood samples collected by TASSO M-20. […]
Separation between metabolites and interfering endogenous compounds was achieved by injecting 2 μL sample extract onto an Acquity UPLC BEH C18 column (50×2.1 mm, 1.7 μm, Waters) at 50° C. and using 10 mM ammonium bicarbonate solution as mobile phase A, and methanol: acetonitrile (50:50, v/v) as mobile phase B. A gradient elution at a flow rate of 0.600 mL/min was applied using the following program: 35% B was increased to 90% B in 3 min, was further increased to 98% B at 3.01 min and held constant up to 4.00 min.
A Triple Quad 6500+ mass spectrometer (Sciex) equipped with a turbo ion spray source was used for analyte detection in positive ion mode using electrospray ionization. […]

[1] = 450 mg, Panel I (450 mg BID Days 1-2, then 900 mg Q7D; SF2a/b, fed), Day 2
[2] = 450 mg, Panel II (450 mg BID Days 1-2, then 450 mg Q3D/Q4D; SF2a/b, fed), Day 27
[3] = Panel I (450 mg BID Days 1-2, then 900 mg Q7D; SF2a/b, fed), Day 24
[4] = Panel II (450 mg BID Days 1-2, then 450 mg Q3D/Q4D; SF2a/b, fed), Day 2
[5] = Panel III (150 mg BID Days 1-2, then 300 mg Q7D; SF2a/b, fed), Day 24
[6] = Panel IV (150 mg BID Days 1-2, then 150 mg Q3D/Q4D; SF2a/b, fed), Day 2

COc1cc(NC(C(=O)c2c[nH]c3ccc(OC(F)(F)F)cc23)c2ccc(Cl)cc2OC)cc(S(C)(=O)=O)c1 (stereo not drawn) [Compound (a)]
Cmax (300 mg, Panel III (150 mg BID Days 1-2, then 300 mg Q7D; SF2a/b, fed), Day 3): 3.1 µg/mL
Tmax (300 mg, Panel III (150 mg BID Days 1-2, then 300 mg Q7D; SF2a/b, fed), Day 3, read-out: Median tmax (min-max)): 5 h
AUC (450 mg, Panel I (450 mg BID Days 1-2, then 900 mg Q7D; SF2a/b, fed), Day 1): 17.5 µg·h/mL
Tmax (450 mg, Panel I (450 mg BID Days 1-2, then 900 mg Q7D; SF2a/b, fed), Day 1, read-out: Median tmax (min-max)): 7.5 h
AUC [1]: 46.5 µg·h/mL
Cmax [1]: 5.08 µg/mL
Tmax (450 mg, Panel I (450 mg BID Days 1-2, then 900 mg Q7D; SF2a/b, fed), Day 2, read-out: Median tmax (min-max)): 5.5 h
Cmax (450 mg, Panel II (450 mg BID Days 1-2, then 450 mg Q3D/Q4D; SF2a/b, fed), Day 1): 1.97 µg/mL
AUC(0-t) (450 mg, Panel II (450 mg BID Days 1-2, then 450 mg Q3D/Q4D; SF2a/b, fed), Day 3, read-out: Mean AUC24 h (SD)): 110 µg·h/mL
AUC(0-t) (450 mg, Panel II (450 mg BID Days 1-2, then 450 mg Q3D/Q4D; SF2a/b, fed), Day 3, read-out: Mean AUC72 h (SD)): 263 µg·h/mL
Cmax (450 mg, Panel II (450 mg BID Days 1-2, then 450 mg Q3D/Q4D; SF2a/b, fed), Day 3): 5.95 µg/mL
Tmax (450 mg, Panel II (450 mg BID Days 1-2, then 450 mg Q3D/Q4D; SF2a/b, fed), Day 3, read-out: Median tmax (min-max)): 6.5 h
Cmax (450 mg, Panel II (450 mg BID Days 1-2, then 450 mg Q3D/Q4D; SF2a/b, fed), Day 6): 4.38 µg/mL
Cmax (450 mg, Panel II (450 mg BID Days 1-2, then 450 mg Q3D/Q4D; SF2a/b, fed), Day 10): 4.08 µg/mL
Cmax (450 mg, Panel II (450 mg BID Days 1-2, then 450 mg Q3D/Q4D; SF2a/b, fed), Day 13): 4.07 µg/mL
Cmax (450 mg, Panel II (450 mg BID Days 1-2, then 450 mg Q3D/Q4D; SF2a/b, fed), Day 17): 3.94 µg/mL
Cmax (450 mg, Panel II (450 mg BID Days 1-2, then 450 mg Q3D/Q4D; SF2a/b, fed), Day 20): 4.06 µg/mL
Cmax (450 mg, Panel II (450 mg BID Days 1-2, then 450 mg Q3D/Q4D; SF2a/b, fed), Day 24): 3.92 µg/mL
AUC(0-t) (450 mg, Panel II (450 mg BID Days 1-2, then 450 mg Q3D/Q4D; SF2a/b, fed), Day 27, read-out: Mean AUC24 h (SD)): 74.2 µg·h/mL
AUC(0-t) (450 mg, Panel II (450 mg BID Days 1-2, then 450 mg Q3D/Q4D; SF2a/b, fed), Day 27, read-out: Mean AUC72 h (SD)): 197 µg·h/mL
AUC(0-t) (450 mg, Panel II (450 mg BID Days 1-2, then 450 mg Q3D/Q4D; SF2a/b, fed), Day 27, read-out: Mean AUClast (SD)): 771 µg·h/mL
AUC(0-inf) [2]: 809 µg·h/mL
Cmax [2]: 3.98 µg/mL
Tmax (450 mg, Panel II (450 mg BID Days 1-2, then 450 mg Q3D/Q4D; SF2a/b, fed), Day 27, read-out: Median tmax (min-max)): 6 h
AUC(0-t) (900 mg, Panel I (450 mg BID Days 1-2, then 900 mg Q7D; SF2a/b, fed), Day 3, read-out: Mean AUC24 h (SD)): 129 µg·h/mL
AUC(0-t) (900 mg, Panel I (450 mg BID Days 1-2, then 900 mg Q7D; SF2a/b, fed), Day 3, read-out: Mean AUC72 h (SD)): 318 µg·h/mL
Cmax (900 mg, Panel I (450 mg BID Days 1-2, then 900 mg Q7D; SF2a/b, fed), Day 3): 6.57 µg/mL
Tmax (900 mg, Panel I (450 mg BID Days 1-2, then 900 mg Q7D; SF2a/b, fed), Day 3, read-out: Median tmax (min-max)): 5 h
Cmax (Panel I (450 mg BID Days 1-2, then 900 mg Q7D; SF2a/b, fed), Day 1): 2.02 µg/mL
Cmax (Panel I (450 mg BID Days 1-2, then 900 mg Q7D; SF2a/b, fed), Day 10): 4.24 µg/mL
Cmax (Panel I (450 mg BID Days 1-2, then 900 mg Q7D; SF2a/b, fed), Day 17): 4.28 µg/mL
AUC(0-t) (Panel I (450 mg BID Days 1-2, then 900 mg Q7D; SF2a/b, fed), Day 24, read-out: Mean AUC24 h (SD)): 79.7 µg·h/mL
AUC(0-t) (Panel I (450 mg BID Days 1-2, then 900 mg Q7D; SF2a/b, fed), Day 24, read-out: Mean AUC72 h (SD)): 195 µg·h/mL
AUC(0-t) (Panel I (450 mg BID Days 1-2, then 900 mg Q7D; SF2a/b, fed), Day 24, read-out: Mean AUClast (SD)): 657 µg·h/mL
AUC(0-inf) [3]: 676 µg·h/mL
Cmax [3]: 4.26 µg/mL
Tmax (Panel I (450 mg BID Days 1-2, then 900 mg Q7D; SF2a/b, fed), Day 24, read-out: Median tmax (min-max)): 6 h
AUC (Panel II (450 mg BID Days 1-2, then 450 mg Q3D/Q4D; SF2a/b, fed), Day 1): 15.5 µg·h/mL
Tmax (Panel II (450 mg BID Days 1-2, then 450 mg Q3D/Q4D; SF2a/b, fed), Day 1, read-out: Median tmax (min-max)): 5.5 h
AUC [4]: 44.9 µg·h/mL
Cmax [4]: 4.64 µg/mL
Tmax (Panel II (450 mg BID Days 1-2, then 450 mg Q3D/Q4D; SF2a/b, fed), Day 2, read-out: tmax): 5 h
Cmax (Panel III (150 mg BID Days 1-2, then 300 mg Q7D; SF2a/b, fed), Day 1): 0.741 µg/mL
Cmax (Panel III (150 mg BID Days 1-2, then 300 mg Q7D; SF2a/b, fed), Day 10): 2.18 µg/mL
Cmax (Panel III (150 mg BID Days 1-2, then 300 mg Q7D; SF2a/b, fed), Day 17): 2.05 µg/mL
AUC(0-t) (Panel III (150 mg BID Days 1-2, then 300 mg Q7D; SF2a/b, fed), Day 24, read-out: Mean AUC24 h (SD)): 37.2 µg·h/mL
AUC(0-t) (Panel III (150 mg BID Days 1-2, then 300 mg Q7D; SF2a/b, fed), Day 24, read-out: Mean AUC72 h (SD)): 92.5 µg·h/mL
AUC(0-t) (Panel III (150 mg BID Days 1-2, then 300 mg Q7D; SF2a/b, fed), Day 24, read-out: Mean AUClast (SD)): 299 µg·h/mL
AUC(0-inf) [5]: 325 µg·h/mL
Cmax [5]: 2.13 µg/mL
Tmax (Panel III (150 mg BID Days 1-2, then 300 mg Q7D; SF2a/b, fed), Day 24, read-out: Median tmax (min-max)): 7 h
AUC (Panel IV (150 mg BID Days 1-2, then 150 mg Q3D/Q4D; SF2a/b, fed), Day 1): 5.98 µg·h/mL
Tmax (Panel IV (150 mg BID Days 1-2, then 150 mg Q3D/Q4D; SF2a/b, fed), Day 1, read-out: Median tmax (min-max)): 5 h
AUC [6]: 15.8 µg·h/mL
Cmax [6]: 1.6 µg/mL
Tmax (Panel IV (150 mg BID Days 1-2, then 150 mg Q3D/Q4D; SF2a/b, fed), Day 2, read-out: tmax): 5 h
concentration at 72 h (Panel I (450 mg BID Days 1-2, then 900 mg Q7D; SF2a/b, fed), Day 3): 3.44 µg/mL
concentration at 72 h (Panel II (450 mg BID Days 1-2, then 450 mg Q3D/Q4D; SF2a/b, fed), Day 3): 2.71 µg/mL
concentration at 72 h (Panel III (150 mg BID Days 1-2, then 300 mg Q7D; SF2a/b, fed), Day 3): 1.21 µg/mL
concentration at 72 h (Panel IV (150 mg BID Days 1-2, then 150 mg Q3D/Q4D; SF2a/b, fed), Day 3): 0.865 µg/mL
